Experiment [1] deals with T1, thromboxane synthetase (Homo sapiens, UniProt P24557).
T1 construct: crude microsomal preparation of thromboxane synthetase from lysed human platelets; from tissue; host or cells: lysed human platelets, crude microsomal preparation
T1 sequence (P24557 1-533): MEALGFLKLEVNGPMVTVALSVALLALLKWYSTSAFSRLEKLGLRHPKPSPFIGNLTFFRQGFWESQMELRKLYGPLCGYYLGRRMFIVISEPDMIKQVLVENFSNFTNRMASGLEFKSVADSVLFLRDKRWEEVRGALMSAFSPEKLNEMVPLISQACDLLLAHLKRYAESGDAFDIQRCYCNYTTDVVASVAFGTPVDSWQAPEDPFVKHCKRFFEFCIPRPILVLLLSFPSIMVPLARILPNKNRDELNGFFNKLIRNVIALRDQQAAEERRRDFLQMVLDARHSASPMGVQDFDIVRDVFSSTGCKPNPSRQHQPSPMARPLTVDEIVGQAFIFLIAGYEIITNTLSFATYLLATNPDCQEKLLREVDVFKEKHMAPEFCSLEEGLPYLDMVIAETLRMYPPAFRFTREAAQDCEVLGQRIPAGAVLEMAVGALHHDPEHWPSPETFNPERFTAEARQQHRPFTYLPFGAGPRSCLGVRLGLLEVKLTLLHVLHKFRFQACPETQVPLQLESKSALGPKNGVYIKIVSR
The experiment can be described thus: in vitro inhibition of the thromboxane synthetase enzyme. To be noted: 30 minutes incubation; ratio T×B2/PGF2 α+β reduced to 50% of control. The format is biochemical, human (lysed human platelets). How it is done: Res. Comm. 74, 1432 (1977); the testing procedure is as follows: ^14 C-Arachidonic acid is incubated with an enzyme consisting of solubilized and partially purified prostaglandin cyclo-oxygenase from sheep seminal vesicles and a crude microsomal preparation of thromboxane synthetase from lysed human platelets. The test compound (dissolved in buffer, or if necessary, in a small amount of ethanol) is added to the incubation medium. At the end of the incubation period (30 minutes), Prostaglandin E2 (PGE2) is reduced to a mixture of Prostaglandin F2 α and F2 β (PGF2 α+β) by addition of sodium borohydride. The radioactive products and excess substrate are extracted into ethyl acetate; the extract is evaporated to dryness; the residue is dissolved in acetone, spotted on thin-layer plates and chromatographed in the solvent system toluene:acetone:glacial acetic acid (100 volumes:100 volumes:3 volumes). The radioactive zones are located; those corresponding to Thromboxane B2 (T×B2) and PGF2 α+β are transferred to liquid scintillation vials and counted. The ratio of counts for T×B2 /PGF2 α+β is calculated for each concentration of test compound and IC50 values are determined graphically as the concentration of test compound at which the ratio of T×B2 /PGF2 α+β is reduced to 50% of the control value.

For experiment [2], the target named is T2, lipoxygenase (Cavia porcellus, UniProt A0A286X958).
T2 construct: Guinea pig peritoneal neutrophils; endogenous in cells; host or cells: guinea pig peritoneal neutrophils (elicited with sodium caseinate)
T2 sequence (A0A286X958 1-674): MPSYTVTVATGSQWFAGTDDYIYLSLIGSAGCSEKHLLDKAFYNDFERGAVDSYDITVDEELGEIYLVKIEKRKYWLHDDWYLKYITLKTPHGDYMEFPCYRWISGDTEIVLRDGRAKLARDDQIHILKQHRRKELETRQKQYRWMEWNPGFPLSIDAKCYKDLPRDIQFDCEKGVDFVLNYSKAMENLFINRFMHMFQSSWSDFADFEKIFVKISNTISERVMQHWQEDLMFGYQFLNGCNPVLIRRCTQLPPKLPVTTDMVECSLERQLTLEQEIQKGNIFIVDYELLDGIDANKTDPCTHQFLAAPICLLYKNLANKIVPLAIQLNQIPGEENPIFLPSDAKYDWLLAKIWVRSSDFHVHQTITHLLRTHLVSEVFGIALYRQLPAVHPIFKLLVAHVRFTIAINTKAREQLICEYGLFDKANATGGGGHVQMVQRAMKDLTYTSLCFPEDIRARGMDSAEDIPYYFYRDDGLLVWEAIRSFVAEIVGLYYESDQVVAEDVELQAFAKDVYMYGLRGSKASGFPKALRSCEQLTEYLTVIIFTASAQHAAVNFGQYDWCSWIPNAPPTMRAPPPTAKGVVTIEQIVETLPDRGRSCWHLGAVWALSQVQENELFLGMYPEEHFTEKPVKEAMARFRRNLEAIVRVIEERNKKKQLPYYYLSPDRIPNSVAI
As to the kind of experiment: lipoxygenase inhibition in guinea pig peritoneal neutrophils. The format is cell-based. To be noted: 14C-arachidonic acid (4 μM), A-23187 (2 μM), 37° C.; LTB4 and 5-HETE. How it is done:
Guinea pig peritoneal neutrophils (elicited by an i.p. injection of sodium caseinate 17 hours prior to harvesting) are preincubated with indomethacin (1 μM) and test drugs for 5 minutes at 37° C. ^14 C-arachidonic acid (4 μM) and calcium ionophore A-23187 (2 μM) are added and the samples are incubated for another 5 minutes at 37° C. The reaction is terminated by the addition of 1N HCl and the products are extracted with ethyl acetate and separated by thin-layer chromatography; the plates are scanned and the radioactive zones corresponding to LTB4 and 5-HETE are scraped off, transferred to liquid scintillation vials and counted for radioactivity.

Experiment [3] addresses T3, prostaglandin cyclooxygenase (Ovis aries, UniProt P05979).
T3 construct: Lyophilized sheep seminal vesicle microsomes are utilized as the prostaglandin-synthesizing enzyme preparation; from tissue; host or cells: lyophilized sheep seminal vesicle microsomes
T3 sequence (P05979 25-600): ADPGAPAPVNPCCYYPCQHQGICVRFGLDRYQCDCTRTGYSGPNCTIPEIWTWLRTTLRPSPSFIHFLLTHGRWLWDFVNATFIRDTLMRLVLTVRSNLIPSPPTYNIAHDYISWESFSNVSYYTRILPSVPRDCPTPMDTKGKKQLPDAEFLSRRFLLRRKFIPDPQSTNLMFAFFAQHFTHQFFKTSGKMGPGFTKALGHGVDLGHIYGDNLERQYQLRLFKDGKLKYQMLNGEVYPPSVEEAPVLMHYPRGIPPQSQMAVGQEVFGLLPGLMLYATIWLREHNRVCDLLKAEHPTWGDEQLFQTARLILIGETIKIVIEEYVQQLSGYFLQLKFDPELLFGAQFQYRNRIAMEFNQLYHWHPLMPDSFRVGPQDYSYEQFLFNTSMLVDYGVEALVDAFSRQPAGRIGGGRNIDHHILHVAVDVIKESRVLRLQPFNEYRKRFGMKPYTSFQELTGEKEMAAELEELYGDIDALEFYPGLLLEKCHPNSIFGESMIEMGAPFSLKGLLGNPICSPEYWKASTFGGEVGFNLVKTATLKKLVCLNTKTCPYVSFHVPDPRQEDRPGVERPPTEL
The experiment can be described thus: in-vitro effect on prostaglandin cyclooxygenase. The format is biochemical, sheep (seminal vesicle microsomes). Particulars: 50% reduction in the amount of PGE2 synthesized; read-out: IC50 for cyclooxygenase inhibition. How it is done: The in-vitro effect on prostaglandin cyclooxygenase is measured by a modification of the method of Takeguchi et al. described in Biochemistry 10, 2372 (1971); the testing procedure is as follows:
Lyophilized sheep seminal vesicle microsomes are utilized as the prostaglandin-synthesizing enzyme preparation. The conversion of ^14 C-arachidonic acid to PGE2 is measured. Test compounds (dissolved in buffer, or if necessary, in a small amount of ethanol) are added to the incubation mixture. The prostaglandins are extracted and separated by thin-layer chromatography; the plates are scanned, the radioactive zones corresponding to PGE2 are transferred to liquid scintillation vials and counted for radioactivity. IC50 values for inhibition are determined graphically as the concentration of test compound causing a 50% reduction in the amount of PGE2 synthesized.

Experiment [4] concerns thromboxane B2. The experiment can be described thus: in vivo reduction of plasma levels of thromboxane (thromboxane B2) in rats after ionophore A23187. To be noted: rat, oral dose of 0.04 mg/kg or lower. The protocol:
(§1) The inhibition of the synthesis and the reduction of plasma levels of thromboxane is determined in vivo on administration to rats in the following manner (as adapted from the procedures described by Tai et al. in Anal. Biochem. 87:343, 1978 and by Salmon in Prostaglandins 15:383, 1978):
(§2) Rats are dosed with vehicle or test drug and injected intravenously with ionophore A23187 (0.5 mg/kg) two hours later. Blood is collected for analysis 2 minutes after the ionophore injection. A single aliquot of each plasma sample is assayed for thromboxane B2 and another aliquot for 6-keto-PGF1 α, the stable metabolites of thromboxane A2 and prostacyclin (PGI2) respectively, by radioimmunoassay.

For experiment [5], the system named is prostacyclin. As to the kind of experiment: in vivo plasma level of prostacyclin (6-keto-PGF1 α) in rats after ionophore A23187. Particulars: rat, oral dose of 0.04 mg/kg or lower. How it is done: as §1, §2
Experiment [6] is described as follows: bleeding time in the rat. To be noted: about 1.0 mg/kg p.o. Type of experiment: in vivo. An excerpt:
Indicative of the utility in thromboembolism, compounds of this invention also prolong bleeding time in the rat.

The structures appear in SMILES notation.

For the molecule `O=C(O)CCCCCc1cn(-c2cccnc2)c2ccccc12` [3-(5-carboxypentyl)-N-(3-pyridyl)indole], in experiment [1], the half-inhibitory concentration (IC50) – broadly, the midpoint of a concentration-inhibition curve – is around 0.004 µM.

Consider `O=C(O)CCCCc1cn(-c2cccnc2)c2ccc(Cl)cc12` [3-(4-carboxybutyl)-5-chloro-N-(3-pyridyl)indole], for which the IC50 in experiment [1] was around 0.0026 µM; in experiment [2], around 30 µM.

As to `O=C(O)CCCCc1cn(-c2cccnc2)c2ccccc12` [3-(4-carboxybutyl)-N-(3-pyridyl)indole], the values for the IC50 in experiment [1] and in experiment [3] were around 0.0011 µM and above 1000 µM, respectively. For the same molecule, the “decrease of plasma concentration of thromboxane B2” value in experiment [4] is reported as “over 50%”. The “increase in the plasma level of prostacyclin” value in experiment [5] is on record as “approximately 5 fold”. In experiment [6], the “prolongation of bleeding time” value is “prolongs bleeding time”.

Values taken from patent US4536505A, “Certain N-(pyridyl) indoles” (Ciba-Geigy Corporation, priority 1983, dated 1985).
